In ChEMBL document CHEMBL5705888, “Substrate specificity and inhibitors of LRRK2, a protein kinase mutated in Parkinson's disease” (Biochem J, 2009):

How the values were obtained:
[1] = target: RAC-alpha serine/threonine-protein kinase (Homo sapiens) (UniProt P31749); assay: Inhibition of PKBalpha (unknown origin) at 1 uM incubated for 30 mins in presence of [gamma-33P]ATP by multidrop micro reagent based assay relative to control; values are per cent of control
[2] = target: Ribosomal protein S6 kinase alpha-3 (Homo sapiens) (UniProt P51812); assay: Inhibition of RSK2 (unknown origin) at 1 uM incubated for 30 mins in presence of [gamma-33P]ATP by multidrop micro reagent based assay relative to control; values are per cent of control
[3] = target: Serine/threonine-protein kinase pim-3 (Homo sapiens) (UniProt Q86V86); assay: Inhibition of PIM3 (unknown origin) at 1 uM incubated for 30 mins in presence of [gamma-33P]ATP by multidrop micro reagent based assay relative to control; values are per cent of control
[4] = target: Rho-associated protein kinase 2 (Homo sapiens, UniProt O75116); assay: Inhibition of ROCK2 (unknown origin) at 1 uM incubated for 30 mins in presence of [gamma-33P]ATP by multidrop micro reagent based assay relative to control; values are per cent of control
Rho-associated protein kinase 2, sequence (O75116 whole entry, looked up): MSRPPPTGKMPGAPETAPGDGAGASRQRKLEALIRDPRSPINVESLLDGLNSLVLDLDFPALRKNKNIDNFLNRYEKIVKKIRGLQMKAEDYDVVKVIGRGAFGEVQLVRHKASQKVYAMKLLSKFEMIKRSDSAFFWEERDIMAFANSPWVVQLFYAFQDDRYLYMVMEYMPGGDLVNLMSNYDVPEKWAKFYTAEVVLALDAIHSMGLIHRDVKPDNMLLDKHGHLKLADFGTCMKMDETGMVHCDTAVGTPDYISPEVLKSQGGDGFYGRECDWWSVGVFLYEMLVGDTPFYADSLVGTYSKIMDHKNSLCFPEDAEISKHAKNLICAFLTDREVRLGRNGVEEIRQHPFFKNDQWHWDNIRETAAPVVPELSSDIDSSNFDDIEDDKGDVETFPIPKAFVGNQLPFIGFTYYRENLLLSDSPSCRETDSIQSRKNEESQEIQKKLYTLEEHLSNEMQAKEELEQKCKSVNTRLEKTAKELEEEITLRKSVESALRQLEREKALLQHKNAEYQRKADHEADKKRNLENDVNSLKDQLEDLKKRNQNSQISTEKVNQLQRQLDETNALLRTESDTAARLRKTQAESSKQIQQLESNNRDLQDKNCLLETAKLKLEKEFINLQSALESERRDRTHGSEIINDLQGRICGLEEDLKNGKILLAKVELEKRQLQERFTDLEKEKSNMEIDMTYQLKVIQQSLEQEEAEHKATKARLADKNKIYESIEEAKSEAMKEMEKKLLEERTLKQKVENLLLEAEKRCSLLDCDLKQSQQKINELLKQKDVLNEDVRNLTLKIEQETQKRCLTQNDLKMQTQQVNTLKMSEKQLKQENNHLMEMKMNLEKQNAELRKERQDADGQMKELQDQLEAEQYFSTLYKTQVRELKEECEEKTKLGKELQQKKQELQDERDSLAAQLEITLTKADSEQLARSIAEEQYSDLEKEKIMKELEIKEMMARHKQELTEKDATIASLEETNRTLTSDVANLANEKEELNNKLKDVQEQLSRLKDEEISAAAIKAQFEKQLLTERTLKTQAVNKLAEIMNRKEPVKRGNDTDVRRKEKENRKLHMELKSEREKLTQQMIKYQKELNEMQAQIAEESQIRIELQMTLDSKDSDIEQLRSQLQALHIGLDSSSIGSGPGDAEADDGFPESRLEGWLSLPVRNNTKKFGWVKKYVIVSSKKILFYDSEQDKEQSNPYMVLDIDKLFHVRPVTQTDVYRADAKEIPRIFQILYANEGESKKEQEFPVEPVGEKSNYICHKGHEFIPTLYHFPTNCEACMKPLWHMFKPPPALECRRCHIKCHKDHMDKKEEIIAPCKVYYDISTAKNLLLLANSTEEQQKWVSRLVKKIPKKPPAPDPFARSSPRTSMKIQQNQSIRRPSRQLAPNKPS

[5] = target: Aurora kinase B (Homo sapiens) (UniProt Q96GD4); assay: Inhibition of Aurora B kinase (unknown origin) at 1 uM incubated for 30 mins in presence of [gamma-33P]ATP by multidrop micro reagent based assay relative to control; values are per cent of control
Aurora kinase B (Homo sapiens), sequence (Q96GD4 whole entry): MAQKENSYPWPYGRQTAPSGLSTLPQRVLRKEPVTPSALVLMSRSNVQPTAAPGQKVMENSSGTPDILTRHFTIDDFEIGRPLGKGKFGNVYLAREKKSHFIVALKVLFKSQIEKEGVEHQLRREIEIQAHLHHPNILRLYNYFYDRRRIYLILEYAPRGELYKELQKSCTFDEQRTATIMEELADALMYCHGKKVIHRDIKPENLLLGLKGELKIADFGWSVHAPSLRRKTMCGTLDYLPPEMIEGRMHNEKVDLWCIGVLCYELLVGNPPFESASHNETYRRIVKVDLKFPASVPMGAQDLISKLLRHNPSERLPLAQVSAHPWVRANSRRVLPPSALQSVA

[6] = target: Glycogen synthase kinase-3 beta (Homo sapiens) (UniProt P49841); assay: Inhibition of GSK3beta (unknown origin) at 1 uM incubated for 30 mins in presence of [gamma-33P]ATP by multidrop micro reagent based assay relative to control; values are per cent of control
Glycogen synthase kinase-3 beta (Homo sapiens), sequence (P49841 whole entry, looked up): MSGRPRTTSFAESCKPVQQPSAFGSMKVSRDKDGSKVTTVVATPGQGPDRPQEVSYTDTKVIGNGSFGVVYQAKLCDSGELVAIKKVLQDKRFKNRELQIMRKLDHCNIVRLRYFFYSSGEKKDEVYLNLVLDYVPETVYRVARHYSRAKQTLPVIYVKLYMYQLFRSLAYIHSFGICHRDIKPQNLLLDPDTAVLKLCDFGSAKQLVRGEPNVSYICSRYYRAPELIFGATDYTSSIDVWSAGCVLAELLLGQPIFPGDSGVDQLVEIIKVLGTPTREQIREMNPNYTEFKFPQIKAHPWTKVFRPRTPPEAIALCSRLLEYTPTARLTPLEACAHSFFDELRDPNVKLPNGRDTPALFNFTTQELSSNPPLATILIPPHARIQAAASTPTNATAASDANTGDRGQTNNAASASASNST

[7] = target: Serine/threonine-protein kinase Nek6 (Homo sapiens) (UniProt Q9HC98); assay: Inhibition of NEK6 (unknown origin) at 1 uM incubated for 30 mins in presence of [gamma-33P]ATP by multidrop micro reagent based assay relative to control; values are per cent of control
Serine/threonine-protein kinase Nek6 (Homo sapiens), sequence (Q9HC98 whole entry): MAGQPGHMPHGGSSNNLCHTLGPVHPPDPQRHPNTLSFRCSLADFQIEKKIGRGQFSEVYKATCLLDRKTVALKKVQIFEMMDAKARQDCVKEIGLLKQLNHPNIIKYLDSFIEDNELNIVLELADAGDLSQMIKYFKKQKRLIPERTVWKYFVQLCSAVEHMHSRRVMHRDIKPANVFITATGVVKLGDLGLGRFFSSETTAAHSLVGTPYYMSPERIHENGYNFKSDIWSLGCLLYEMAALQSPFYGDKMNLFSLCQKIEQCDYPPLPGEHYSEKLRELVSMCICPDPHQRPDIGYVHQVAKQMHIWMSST

[8] = target: Dual specificity mitogen-activated protein kinase kinase 1 (Homo sapiens) (UniProt Q02750); assay: Inhibition of MKK1 (unknown origin) at 1 uM incubated for 30 mins in presence of [gamma-33P]ATP by multidrop micro reagent based assay relative to control; values are per cent of control
Dual specificity mitogen-activated protein kinase kinase 1 (Homo sapiens), sequence (Q02750 whole entry): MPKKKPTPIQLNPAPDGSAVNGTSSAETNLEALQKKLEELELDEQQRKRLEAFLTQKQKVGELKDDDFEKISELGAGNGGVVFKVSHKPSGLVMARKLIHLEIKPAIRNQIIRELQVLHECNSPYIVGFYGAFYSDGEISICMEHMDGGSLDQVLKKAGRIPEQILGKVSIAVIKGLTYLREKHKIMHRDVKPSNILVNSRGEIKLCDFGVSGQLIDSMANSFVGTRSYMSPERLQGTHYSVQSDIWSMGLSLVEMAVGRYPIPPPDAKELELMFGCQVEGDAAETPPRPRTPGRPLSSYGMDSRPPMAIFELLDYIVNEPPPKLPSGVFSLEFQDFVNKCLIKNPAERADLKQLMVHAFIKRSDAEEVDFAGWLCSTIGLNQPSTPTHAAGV

[9] = target: Mitogen-activated protein kinase 8 (Homo sapiens) (UniProt P45983); assay: Inhibition of JNK1 (unknown origin) at 1 uM incubated for 30 mins in presence of [gamma-33P]ATP by multidrop micro reagent based assay relative to control; values are per cent of control
Mitogen-activated protein kinase 8 (Homo sapiens), sequence (P45983 whole entry): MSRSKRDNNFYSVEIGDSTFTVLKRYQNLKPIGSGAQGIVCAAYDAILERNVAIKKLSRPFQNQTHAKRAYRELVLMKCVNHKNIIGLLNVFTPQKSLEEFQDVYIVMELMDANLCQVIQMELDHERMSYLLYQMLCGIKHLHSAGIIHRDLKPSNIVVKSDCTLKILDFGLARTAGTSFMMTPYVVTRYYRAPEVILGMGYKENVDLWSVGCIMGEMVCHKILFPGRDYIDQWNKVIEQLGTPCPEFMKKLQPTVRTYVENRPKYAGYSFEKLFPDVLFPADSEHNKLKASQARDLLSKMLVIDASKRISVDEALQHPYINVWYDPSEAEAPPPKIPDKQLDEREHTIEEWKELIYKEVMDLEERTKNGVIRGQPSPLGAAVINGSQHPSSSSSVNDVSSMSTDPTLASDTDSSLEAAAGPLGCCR

[10] = target: T1, Interleukin-1 receptor-associated kinase 4 (Homo sapiens) (UniProt Q9NWZ3); assay: Activity of IRAK4 (unknown origin) at 1 uM incubated for 30 mins in presence of [gamma-33P]ATP by multidrop micro reagent based assay relative to control
T1 sequence (whole entry): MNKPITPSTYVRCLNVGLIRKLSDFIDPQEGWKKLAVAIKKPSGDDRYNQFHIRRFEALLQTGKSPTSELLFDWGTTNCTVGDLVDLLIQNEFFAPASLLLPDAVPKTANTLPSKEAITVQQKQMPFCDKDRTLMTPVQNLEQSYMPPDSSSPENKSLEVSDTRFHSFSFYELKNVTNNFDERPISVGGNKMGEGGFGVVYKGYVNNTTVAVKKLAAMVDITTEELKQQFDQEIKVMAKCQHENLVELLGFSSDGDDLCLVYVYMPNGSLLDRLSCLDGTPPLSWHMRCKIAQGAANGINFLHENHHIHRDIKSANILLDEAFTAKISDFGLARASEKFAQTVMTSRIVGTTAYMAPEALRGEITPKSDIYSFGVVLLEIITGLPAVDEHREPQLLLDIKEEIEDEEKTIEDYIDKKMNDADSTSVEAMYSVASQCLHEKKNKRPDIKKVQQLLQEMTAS

[11] = target: T2, Dual specificity tyrosine-phosphorylation-regulated kinase 2 (Homo sapiens) (UniProt Q92630); assay: Inhibition of DYRK2 (unknown origin) at 1 uM incubated for 30 mins in presence of [gamma-33P]ATP by multidrop micro reagent based assay relative to control; values are per cent of control
T2 sequence (whole entry): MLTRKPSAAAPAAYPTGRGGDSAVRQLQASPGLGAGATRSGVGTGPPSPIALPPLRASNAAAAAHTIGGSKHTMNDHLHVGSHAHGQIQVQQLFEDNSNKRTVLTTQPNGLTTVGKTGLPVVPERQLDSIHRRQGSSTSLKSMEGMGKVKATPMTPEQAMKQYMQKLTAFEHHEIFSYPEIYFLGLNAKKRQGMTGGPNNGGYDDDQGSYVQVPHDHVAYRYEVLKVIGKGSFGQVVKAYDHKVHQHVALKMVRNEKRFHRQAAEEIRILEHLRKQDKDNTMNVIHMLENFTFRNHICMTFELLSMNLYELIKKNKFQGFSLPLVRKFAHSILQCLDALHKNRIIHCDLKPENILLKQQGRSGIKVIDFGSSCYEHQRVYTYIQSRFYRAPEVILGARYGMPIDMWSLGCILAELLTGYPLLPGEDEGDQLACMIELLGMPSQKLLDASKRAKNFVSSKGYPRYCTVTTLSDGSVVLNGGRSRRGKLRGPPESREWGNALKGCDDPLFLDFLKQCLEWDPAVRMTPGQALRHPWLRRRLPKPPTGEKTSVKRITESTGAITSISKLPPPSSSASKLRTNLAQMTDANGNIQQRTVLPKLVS

[12] = target: Tyrosine-protein kinase CSK (Homo sapiens) (UniProt P41240); assay: Inhibition of CSK (unknown origin) at 1 uM incubated for 30 mins in presence of [gamma-33P]ATP by multidrop micro reagent based assay relative to control
[13] = target: Serine/threonine-protein kinase PLK1 (Homo sapiens) (UniProt P53350); assay: Inhibition of PLK1 (unknown origin) at 1 uM incubated for 30 mins in presence of [gamma-33P]ATP by multidrop micro reagent based assay relative to control; values are per cent of control
Serine/threonine-protein kinase PLK1 (Homo sapiens), sequence (P53350 whole entry): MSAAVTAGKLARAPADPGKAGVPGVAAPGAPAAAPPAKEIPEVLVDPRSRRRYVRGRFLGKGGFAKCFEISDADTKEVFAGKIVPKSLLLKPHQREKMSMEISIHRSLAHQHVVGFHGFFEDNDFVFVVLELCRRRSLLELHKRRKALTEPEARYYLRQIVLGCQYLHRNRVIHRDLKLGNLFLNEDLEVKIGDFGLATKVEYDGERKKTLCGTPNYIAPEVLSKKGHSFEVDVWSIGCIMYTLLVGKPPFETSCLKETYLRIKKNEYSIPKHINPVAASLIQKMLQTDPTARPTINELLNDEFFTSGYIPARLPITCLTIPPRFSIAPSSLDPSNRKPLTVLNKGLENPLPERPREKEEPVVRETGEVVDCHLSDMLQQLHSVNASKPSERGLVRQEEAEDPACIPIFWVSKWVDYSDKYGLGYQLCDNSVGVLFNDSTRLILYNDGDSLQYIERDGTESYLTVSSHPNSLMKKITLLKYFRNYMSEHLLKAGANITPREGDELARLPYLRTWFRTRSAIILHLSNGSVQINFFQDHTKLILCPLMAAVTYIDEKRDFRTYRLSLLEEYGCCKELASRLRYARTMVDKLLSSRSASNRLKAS

RAC-alpha serine/threonine-protein kinase (Homo sapiens), sequence (P31749 whole entry): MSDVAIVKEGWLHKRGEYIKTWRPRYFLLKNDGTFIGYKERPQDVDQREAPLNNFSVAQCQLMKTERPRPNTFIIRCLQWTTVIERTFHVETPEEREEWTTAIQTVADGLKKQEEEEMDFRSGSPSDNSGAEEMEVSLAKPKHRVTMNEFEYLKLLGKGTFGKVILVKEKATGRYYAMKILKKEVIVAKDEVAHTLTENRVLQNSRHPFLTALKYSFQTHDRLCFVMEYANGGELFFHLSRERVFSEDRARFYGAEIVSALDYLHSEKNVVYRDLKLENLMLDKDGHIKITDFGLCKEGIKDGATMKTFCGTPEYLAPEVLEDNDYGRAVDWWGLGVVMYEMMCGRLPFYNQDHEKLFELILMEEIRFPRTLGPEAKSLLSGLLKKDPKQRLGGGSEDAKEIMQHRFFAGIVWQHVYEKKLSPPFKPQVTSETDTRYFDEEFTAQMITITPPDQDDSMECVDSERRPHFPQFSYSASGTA

CCN(CC)CCNC(=O)c1c(C)[nH]c(/C=C2\C(=O)Nc3ccc(F)cc32)c1C
residual activity [1]: 73% | residual activity [2]: 41% | residual activity [3]: 50% | residual activity [4]: 67% | residual activity [5]: 29%

CC1=C(C(=O)Nc2cc3cn[nH]c3cc2F)C(c2ccc(C(F)(F)F)cc2)CC(=O)N1 (stereo not drawn)
residual activity [1]: 72% | residual activity [2]: 48% | residual activity [6]: 93% | residual activity [7]: 87% | residual activity [8]: 61% | residual activity [3]: 89% | residual activity [9]: 111% | residual activity [10]: 94% | residual activity [11]: 92% | residual activity [4]: 3% | inhibition [12]: 106% | residual activity [5]: 59% | residual activity [13]: 102%

Cc1cncc2cccc(S(=O)(=O)N3CCCNC[C@@H]3C)c12
residual activity [1]: 64% | residual activity [2]: 76% | residual activity [6]: 72% | residual activity [7]: 99% | residual activity [8]: 69% | residual activity [9]: 96% | residual activity [10]: 102% | residual activity [11]: 84% | residual activity [4]: 3% | inhibition [12]: 101% | residual activity [5]: 11% | residual activity [13]: 105%

CCn1c(-c2nonc2N)nc2cnc(Oc3cccc(NC(=O)c4ccc(OCCN5CCOCC5)cc4)c3)cc21 [GSK-269962A]
residual activity [1]: 26% | residual activity [2]: 24% | residual activity [6]: 12% | residual activity [7]: 82% | residual activity [8]: 54% | residual activity [3]: 35% | residual activity [9]: 105% | residual activity [10]: 78% | residual activity [11]: 64% | residual activity [4]: 1% | inhibition [12]: 98% | residual activity [5]: 36% | residual activity [13]: 105%
